Data on two molecules can be found in patent publication US20260185163A1, “MEN1 MUTATIONS AND USES THEREOF” (DANA-FARBER CANCER INSTITUTE, INC., priority 2022, published 2026).

Substitutions are numbered along the chain they refer to.

The target of one assay is T1, T349M-mutant Menin (Homo sapiens, UniProt O00255, T344M).
T1 construct: made in house; host or cells: E. coli BL21-DE3 Rosetta
T1 sequence (O00255 1-615 isoform O00255-1 T349M): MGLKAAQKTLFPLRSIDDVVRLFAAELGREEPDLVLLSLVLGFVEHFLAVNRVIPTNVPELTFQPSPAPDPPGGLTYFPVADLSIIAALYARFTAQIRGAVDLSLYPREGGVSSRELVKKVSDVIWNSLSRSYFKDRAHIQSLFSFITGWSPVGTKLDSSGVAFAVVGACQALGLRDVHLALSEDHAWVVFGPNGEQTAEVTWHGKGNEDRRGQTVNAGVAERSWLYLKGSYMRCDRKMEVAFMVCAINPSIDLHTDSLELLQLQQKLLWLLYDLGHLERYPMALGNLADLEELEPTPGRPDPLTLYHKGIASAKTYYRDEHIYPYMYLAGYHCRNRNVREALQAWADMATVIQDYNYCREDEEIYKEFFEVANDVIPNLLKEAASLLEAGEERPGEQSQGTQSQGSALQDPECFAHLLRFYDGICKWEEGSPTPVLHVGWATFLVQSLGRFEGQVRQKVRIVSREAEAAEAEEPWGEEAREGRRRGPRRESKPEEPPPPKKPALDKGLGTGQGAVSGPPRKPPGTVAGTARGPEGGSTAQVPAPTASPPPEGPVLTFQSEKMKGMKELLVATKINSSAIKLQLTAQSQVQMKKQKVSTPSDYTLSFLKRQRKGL
Description: competitive MLL1 fluorescence polarization (FP) binding assay, displacement of MLL1 peptide. On the procedure:
(§1) The following peptides were synthesized by GenScript: N-terminal FITC-conjugated MLL14-43(C-A) peptide probe ([…]) with a C-A modification that improves binding to Menin^19, MLL14-43(C-A) ([…]) and MLL14-43(WT) ([…]). N-terminally FITC-labelled and unmodified MLL2 peptides (MLL2(15-48) […]) were synthesized at Genscript. To derive the FITC-MLL14-43(C-A) peptide Kd. FITC-conjugated MLL14-43(C-A) peptide probe at final concentration of 1 nM was mixed with increasing concentration of purified StrepII-Avi-TEV-Menin (5 μM final top concentration, 2-fold, 23-point dilution and a buffer control) in an assay buffer (50 mM Tris pH 7.5, 200 mM NaCl, 0.1% Pluronic F-68 solution (Sigma)) in 384-well microplates at 15 μL assay volume (Corning, 4514) and incubated for 30 min at room temperature (RT). For all assays change in fluorescence polarization was monitored using a PHERAstar FS microplate reader (BMG Labtech). The FITC-conjugated MLL14-43(C-A) peptide Kd was obtained from a fit in GraphPad Prism 9 using one site total model and averaged from three independent runs with three replicates (n=3, FIG. 8). In competitive titration experiments Menin proteins (1 nM WT, 1 nM M327I or 3 nM for T349M) and 1 nM FITC-conjugated MLL14-43(C-A) peptide probe were incubated in an assay buffer for 30 min. SNDX-5613 was then dispensed to 384-well microplate (Corning, 4514) containing 15 μL of the assay mix using D300e Digital Dispenser (HP) and normalized to 1% DMSO followed by 90 min incubation. The fluorescence polarization was monitored by PHERAstar FS microplate reader (BMG Labtech). The MLL14-43(WT) and MLL14-43(C-A) peptide titrations were performed by addition of 7.5 μL of 2-fold 23-point serial dilution into 7.5 μL of assay mix with the final concentrations of 1 nM FITC-conjugated MLL4-43 peptide probe, 1 nM WT Menin or 1 nM Menin M327I or 3 nM Menin T349M in assay buffer. The fluorescence polarization was monitored by PHERAstar FS microplate reader (BMG Labtech). For analysis of the competitive titration experiments the last 10 cycles of the data were averaged to obtain technical replicates. Data from three independent replicates (n=3) was plotted and IC50 values estimated using variable slope equation in GraphPad Prism 9. The calculation of Ki values was performed using Ki calculator available at websites.umich.edu/˜shaomengwanglab/software/calc_ki/index.html^23.
A general note: In fluorescence polarisation assays a small probe gives low polarisation when free and higher when bound to something large.

The target in another assay is T2, M327I-mutant Menin (Homo sapiens, UniProt O00255, M322I).
T2 construct: made in house; host or cells: E. coli BL21-DE3 Rosetta
T2 sequence (O00255 1-615 isoform O00255-1 M327I): T1 sequence (O00255 1-615 isoform O00255-1 T349M) with M327I, M349T
The description is as above. How it is done: as §1

For the molecule `CCN(C(=O)c1cc(F)ccc1Oc1cncnc1N1CC2(CCN(C[C@H]3CC[C@H](NS(=O)(=O)CC)CC3)CC2)C1)C(C)C` [SNDX-5613, revumenib], the “increase of IC50-value for MLL-displacement compared to WT Menin” value on T349M-mutant Menin (T349M mutant vs WT Menin) is 111 fold; on M327I-mutant Menin (M327I mutant vs WT Menin), 51 fold. Also, the “reduction in affinity, fluorescence polarization” value on M327I-mutant Menin (MEN1-M327I compared to MEN1-WT) is on record as “over 50 fold”.
Turning to `CNc1nc(NC2CCN(Cc3ccc4c(cc(C#N)n4CC45CC(NC=O)(C4)C5)c3C)CC2)c2cc(CC(F)(F)F)sc2n1` [MI-3454], the “effect of T349M on binding in the fluorescence polarization assay” value on T349M-mutant Menin (T349M mutant Menin) is recorded as “less affected”. The “effect of M327I on binding” value at M327I-mutant Menin (M327I mutant Menin) was “severely affected”.
